# Experimental data from ChEMBL document CHEMBL3751719, “D1-like receptors distinguishing thieno-azecine regioisomers” (Medchemcomm, 2015).
# pKi: −log10 of the molar value. Calls of active or inactive are those of the source. The calls are words filed in the database; no cut-off is given here.
# Columns and labels:
# [1] = biological target: T1, D(1B) dopamine receptor (Homo sapiens, UniProt P21918); test: Displacement of [3H]SCH-23390 from human cloned D5 dopamine receptor expressed in HEKT cells incubated for 90 mins by scintillation counting based radioligand binding assay; assay type: cell-based
# T1 sequence (P21918 whole entry): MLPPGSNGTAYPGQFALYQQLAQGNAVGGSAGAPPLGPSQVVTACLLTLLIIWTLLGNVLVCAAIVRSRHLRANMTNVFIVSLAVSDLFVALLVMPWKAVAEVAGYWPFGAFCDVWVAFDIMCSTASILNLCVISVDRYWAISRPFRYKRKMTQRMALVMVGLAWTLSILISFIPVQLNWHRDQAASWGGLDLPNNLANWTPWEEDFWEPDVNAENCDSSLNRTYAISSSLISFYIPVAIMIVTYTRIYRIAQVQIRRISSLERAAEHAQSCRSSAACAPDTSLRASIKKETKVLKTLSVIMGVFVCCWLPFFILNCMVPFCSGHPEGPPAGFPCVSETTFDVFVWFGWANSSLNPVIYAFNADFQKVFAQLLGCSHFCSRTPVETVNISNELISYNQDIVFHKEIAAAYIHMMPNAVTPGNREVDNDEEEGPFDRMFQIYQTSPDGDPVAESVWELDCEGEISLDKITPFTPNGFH
# [2] = biological target: T2, D(1A) dopamine receptor (Homo sapiens, UniProt P21728); test: Displacement of [3H]SCH-23390 from human cloned D1 dopamine receptor incubated for 90 mins by radioligand binding assay
# T2 sequence (P21728 whole entry): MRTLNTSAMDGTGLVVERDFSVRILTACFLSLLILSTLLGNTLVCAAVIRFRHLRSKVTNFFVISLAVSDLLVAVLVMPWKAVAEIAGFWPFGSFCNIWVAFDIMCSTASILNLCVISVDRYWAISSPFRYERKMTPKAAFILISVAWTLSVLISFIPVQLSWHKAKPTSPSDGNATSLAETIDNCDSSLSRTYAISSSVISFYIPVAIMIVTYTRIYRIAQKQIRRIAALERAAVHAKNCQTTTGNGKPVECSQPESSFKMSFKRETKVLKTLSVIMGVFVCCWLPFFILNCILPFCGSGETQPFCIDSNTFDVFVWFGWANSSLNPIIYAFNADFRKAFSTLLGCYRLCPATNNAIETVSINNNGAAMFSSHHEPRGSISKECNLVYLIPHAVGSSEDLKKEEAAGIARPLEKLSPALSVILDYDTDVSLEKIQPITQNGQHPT
# [3] = biological target: T3, D(2) dopamine receptor (Homo sapiens, UniProt P14416); test: Displacement of [3H]spiperone from human cloned D2 dopamine receptor incubated for 90 mins by radioligand binding assay
# T3 sequence (P14416 whole entry): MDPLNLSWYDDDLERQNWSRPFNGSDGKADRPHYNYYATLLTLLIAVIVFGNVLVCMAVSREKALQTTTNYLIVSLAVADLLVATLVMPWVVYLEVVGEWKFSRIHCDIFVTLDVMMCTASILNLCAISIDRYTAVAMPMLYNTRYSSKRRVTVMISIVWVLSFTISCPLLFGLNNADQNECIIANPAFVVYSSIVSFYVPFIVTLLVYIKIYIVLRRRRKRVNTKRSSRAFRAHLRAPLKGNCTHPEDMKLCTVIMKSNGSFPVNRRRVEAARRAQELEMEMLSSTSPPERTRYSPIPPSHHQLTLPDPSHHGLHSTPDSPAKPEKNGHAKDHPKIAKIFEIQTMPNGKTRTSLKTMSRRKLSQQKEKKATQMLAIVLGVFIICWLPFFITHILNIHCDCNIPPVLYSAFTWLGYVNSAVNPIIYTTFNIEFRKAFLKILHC
# [4] = biological target: T4, D(3) dopamine receptor (Homo sapiens, UniProt P35462); test: Binding affinity to human cloned D3 dopamine receptor incubated for 90 mins by radioligand binding assay
# T4 sequence (P35462 whole entry): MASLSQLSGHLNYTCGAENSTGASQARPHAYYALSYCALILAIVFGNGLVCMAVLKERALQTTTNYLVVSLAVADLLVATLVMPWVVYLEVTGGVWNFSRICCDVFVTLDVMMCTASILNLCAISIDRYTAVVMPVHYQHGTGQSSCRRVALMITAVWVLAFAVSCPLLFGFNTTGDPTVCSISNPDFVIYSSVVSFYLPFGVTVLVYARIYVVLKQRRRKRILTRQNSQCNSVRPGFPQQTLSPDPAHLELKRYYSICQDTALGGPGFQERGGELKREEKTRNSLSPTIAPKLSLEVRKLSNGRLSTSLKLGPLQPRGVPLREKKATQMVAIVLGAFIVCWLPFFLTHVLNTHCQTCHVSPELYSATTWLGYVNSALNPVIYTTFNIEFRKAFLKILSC
# [5] = biological target: T5, D(4) dopamine receptor (Homo sapiens, UniProt P21917); test: Binding affinity to human cloned D4 dopamine receptor incubated for 90 mins by radioligand binding assay
# T5 sequence (P21917 whole entry): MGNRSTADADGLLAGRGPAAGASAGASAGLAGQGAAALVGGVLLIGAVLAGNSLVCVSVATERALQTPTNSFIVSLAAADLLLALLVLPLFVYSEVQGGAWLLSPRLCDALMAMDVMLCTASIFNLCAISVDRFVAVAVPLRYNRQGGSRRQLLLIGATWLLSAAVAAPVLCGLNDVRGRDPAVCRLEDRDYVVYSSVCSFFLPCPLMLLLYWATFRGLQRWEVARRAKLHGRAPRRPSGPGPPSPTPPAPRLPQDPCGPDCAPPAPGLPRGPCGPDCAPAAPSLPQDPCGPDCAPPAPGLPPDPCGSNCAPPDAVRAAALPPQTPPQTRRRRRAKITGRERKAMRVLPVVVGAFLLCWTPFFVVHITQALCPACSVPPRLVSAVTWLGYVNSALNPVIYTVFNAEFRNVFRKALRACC
# [6] = biological target: T1, D(1B) dopamine receptor; test: Binding affinity to human cloned D5 dopamine receptor incubated for 90 mins by radioligand binding assay
# [7] = biological target: T2, D(1A) dopamine receptor; test: Antagonist activity at human D1 dopamine receptor expressed in HEK293 cells assessed as inhibition of SKF38393-induced intracellular calcium level preincubated at 10 uM by oregon green staining based microplate fluorescence reader analysis; assay type: functional, cell-based
# [8] = biological target: T3, D(2) dopamine receptor; test: Antagonist activity at human D2L dopamine receptor expressed in HEK293 cells assessed as inhibition of quinpirole-induced intracellular calcium level preincubated at 10 uM by oregon green staining based microplate fluorescence reader analysis; assay type: functional, cell-based
# [9] = biological target: T1, D(1B) dopamine receptor; test: Antagonist activity at human D5 dopamine receptor expressed in HEK293 cells assessed as inhibition of SKF38393-induced intracellular calcium level preincubated at 10 uM by oregon green staining based microplate fluorescence reader analysis; assay type: functional, cell-based
# [10] = organism: Homo sapiens; test: Selectivity index, ratio of Ki for human cloned D1 dopamine receptor to Ki for human cloned D5 dopamine receptor
# [11] = biological target: T2, D(1A) dopamine receptor; test: Displacement of [3H]SCH-23390 from human cloned D1 dopamine receptor expressed in HEKT cells incubated for 90 mins by scintillation counting based radioligand binding assay; assay type: cell-based
# [12] = biological target: T4, D(3) dopamine receptor; test: Displacement of [3H]N-methylspiperone from human cloned D3 dopamine receptor expressed in HEKT cells incubated for 90 mins by scintillation counting based radioligand binding assay; assay type: cell-based
# [13] = biological target: T5, D(4) dopamine receptor
SMILES,pKi [1],pKi [2],pKi [3],pKi [4],pKi [5],pKi [6],inhibition [7],inhibition [8],inhibition [9],Ratio Ki [10],pKi [11],pKi [12],pKi [13]
Cc1cc2c(s1)Nc1ccccc1N=C2N1CCN(C)CC1 [OLANZAPINE],7.05,–,–,–,–,–,–,–,–,–,–,–,–
CN1CCc2ccccc2Cc2sc3ccccc3c2CC1,–,7.40,8.82,7.74,7.14,8.72,Active,Active,Active,20,–,–,–
CCOC(=O)N1CCc2ccccc2Cc2ccsc2CC1,–,< 6.00,< 6.00,< 6.00,< 6.00,< 6.00,–,–,–,–,–,–,–
CN1CC2c3ccccc3Oc3ccc(Cl)cc3C2C1 (configuration not stated) [ASENAPINE],–,–,–,–,–,–,–,–,–,–,8.05,8.03,8.05
CCOC(=O)N1CCc2ccccc2Cc2sccc2CC1,–,< 6.00,< 6.00,< 6.00,< 6.00,< 6.00,–,–,–,–,–,–,–
CCOC(=O)N1CCc2ccccc2Cc2sc3ccccc3c2CC1,–,< 6.00,< 6.00,< 6.00,< 6.00,< 6.00,–,–,–,–,–,–,–
CN1CCc2ccccc2Cc2sccc2CC1,–,7.22,7.35,7.62,6.73,8.52,Active,Active,Active,20,–,–,–
